Here are results for 14 compounds from patent US5053431A, “Derivatives of chrysophanol as topoisomerase II inhibitors” (Sloan-Kettering Institute For Cancer Research, priority 1990, dated 1991).

SMILES strings stand for the structures. In brackets after ≈: the same amount, converted by molar mass. Like-named read-outs stand apart in the source and are kept apart here.

For one series, the system named is cancer. The note with it: literature; cited from earlier work.
Another series relates to DNA. To be noted: literature; cited from earlier work.
Series [1] is described as follows: Solubility in aqueous solutions. The format is physicochemical.
Series [2] relates to mouse leukemia L1210 cells. Nature of the series: Inhibition of L1210 cell growth. The format is cell-based. As for the experimental part: Preliminary biological data for inhibiting cell growth of murine L1210 leukemic cells and human acute promyelocytic leukemia cells (HL-60) during 72 h of exposure to the compounds are given in Table IV. The potencies for inhibiting [^3 H]TdR incorporation into DNA in HL-60 cells during the initial 30-min period are also given in Table IV. It is interesting to note that 1,8-di-O-methyl derivatives are uniformly devoid of activity against L1210 leukemic cells. […] The B/A ratios allow an indirect estimation of whether or not cytotoxicities exerted by these analogues are primarily due to initial inhibition of DNA synthesis. […] Whether these analogues, like m-AMSA, ellipticine, or anthracyclines, act by inhibiting DNA topoisomerase II remains to be explored. […] Our preliminary experiments indicate that the compounds arrest cells in the S and/or G2 phases of the cell cycle (unpublished results).

In series [3] the test system is human leukemia HL-60 cells. Nature of the series: HL-60 cell growth inhibition (72 h). The format is cell-based. The note with it: HL-60, 72 h, read-out: ID50, M [HL-60 cell growth (72 h)] (A). As for the experimental part: For cell growth inhibition studies, HL-60 cells […]) were grown in RPMI 1640 media at 37° C. in humidified 5% CO2 for 72 h. Viable cells were counted with the trypan blue exclusion method. The fractional inhibitions at four or five concentrations of compounds (in 0.2% DMSO) were analyzed with a median-effect plot (Chou, T.-C., et al., Adv. Enzyme Regul. 22:27 (1984)) by using a computer program. (Chou, J.; Chou, T.-C. Dose-Effect Analyses with Microcomputer. Quantitation of ID50, LD50, Synergism, Antagonism, Low-dose Risk, Receptor-Binding and Enzyme Kinetics; IBM-PC Series, Elsevier-Biosoft, Elsevier Scientific: Cambridge, U.K., (1986)). The median-effect concentration (ID50) was automatically determined for the x intercept of the median-effect plot. Cell growth in the absence of a compound and in the presence of DMSO was used as a control. DMSO (0.2%) alone inhibited cell growth 3.8±1.2% during the 72-h incubation period.

Series [4] relates to [^3 H]TdR incorporation into DNA in HL-60 cells. Nature of the series: Inhibition of [3H]TdR incorporation into DNA in HL-60 cells (initial 30 min). The format is cell-based, human. To be noted: for IC50: HL-60, initial 30 min exposure, read-out: ID50, M (HL-60 TdR into DNA (B)); for B/A: ratio of ID50 for TdR incorporation (B) to ID50 for cell growth (A), HL-60. As for the experimental part:
For precursor incorporation studies, each compound at four to six concentrations (0.2% DMSO) was preincubated with HL-60 cells (2.5×10^6 /Ml) for 15 min prior to the addition of [^3 H-methyl]TdR (1 μCi, 0.15 nmol/mL) and was incubated for 30 min. […] The incorporation of radioactivity in DNA in the absence of an analogue in the presence of DMSO was used as a control.

Another series is described as follows: Stability of compound. The format is physicochemical.
For series [5], the system named is Topo II. Nature of the series: Heat reversal of protein-linked DNA complex. The format is biochemical, human (HL-60). To be noted: 65 degrees C. As for the experimental part: (§1) This experiment concerns Topoisomerase II (Topo II)-mediated DNA cleavage activity induced by chrysophanol derivatives. 3-(bis[2-chloroethyl]amino)methyl-1,8-dihydroxy-9,10-anthraquinone (SK-31662) and 3-(2-hydroxyethylamino)methyl-1,8-dihydroxy-9,10-anthraquinone (SK-31694) have antileukemic activity with IC>es of 0.14 and 0.86 uM, respectively. SK-31662 and SK-31694 inhibit kDNA decatenation at 48 and 38 uM, respectively.

A further series relates to DNA topoisomerase II. The note with it: literature; cited from earlier work.
Another series relates to leukemia L1210/Cisplatin. In words: Activity against Cisplatin-resistant leukemia L1210 in mice. The format is in vivo, mouse. As for the experimental part: At the dosage of 100 mg/kg/day×5 (ip), mice inoculated with Cisplatin resistant leukemia L1210/Cisplatin are cured.
In a further series the test system is leukemic cells. Nature of the series: Antileukemic activity (Experiment 3). The format is cell-based. To be noted: read-out: antileukemic activity IC>es.
Series [6] deals with Topo II. In words: Inhibition of kDNA decatenation. The format is biochemical.
The subject of series [7] is Topo II. Nature of the series: Mapping of DNA-Topo II cleavage sites (Hind III-digested 3'-labeled DNA, HL-60 nuclear extracts). To be noted: 10 uM. The format is biochemical, human (HL-60). As for the experimental part: as §1
Series [8] has as its system Topo II. In words: Topo II cleavable complex formation. The format is biochemical, human (HL-60). To be noted: 3'-labeled DNA and NE of HL-60. As for the experimental part: as §1
In series [9] the test system is DNA (native and thermally denatured). Nature of the series: Spectrophotometric study of DNA interaction. The format is binding, calf thymus. To be noted: for reversal of DNA induced changes in absorption spectra by Me2SO: Me2 SO to 1:1 v/v. As for the experimental part: Some representative compounds were studied for their ability to interact with nucleic acids in solution by comparison of the electronic spectrum of drug alone with that of the drug in the presence of an excess of nucleic acid. All drugs studied have an absorption band in the visible region, separate from the absorption band of the nucleic acids, and therefore any changes in band intensity and position were indicative of drug chromophore-DNA interaction.
Absorption spectra were measured with an IBM 9410 UV-visible spectrometer interfaced to an HP 9826 computer. Small volumes of the stock drug solutions (2 mg/mL in Me2 SO) were added to 2 mL of buffer (0.01 or 0.1 M NaCl, 5 mM Hepes, pH 7) to obtain a final drug concentration of 5-15 μM, or to the solution of native or thermally denatured DNA (0.2 and 0.1 mM, respectively) in the buffer. After incubation at room temperature for 10 min, the spectra were recorded in the 300-600 nm range (increment 1 nm) and corrected by subtracting the spectrum of the blank which was measured before addition of the drug.

Where [10] appears, read: Mus musculus, L1210, 72 h, read-out: ID50, M (L1210 cell growth).
[11] abbreviates: Mus musculus, L1210, Table I, read-out: ID50 (the source's name).
The mark [12] stands for this setting: Mus musculus, L1210, Table I, read-out: ID50 (μg/mL).

For the compound `Cc1c2ccncc2c(C)c2c1[nH]c1ccc(O)cc12` [9-hydroxyellipticine], the anticancer activity result with cancer was “potent anticancer agent”.

In the case of `COc1c(O)c2c(c3cc(C(=O)N4CCc5c4c(O)c(OC)c4[nH]c(C(=O)N6CC7CC78C6=CC(=O)c6[nH]cc(C)c68)cc54)[nH]c13)CCN2C(N)=O` (centres unmarked) [CC1065], the “DNA binding / alkylation” value in the series with DNA was “binds to the minor groove of DNA by nonintercalative means and then slowly alkylates the amino group of adenine”.

In the case of `Cc1cc(O)c2c(c1)C(=O)c1cccc(O)c1C2=O` [IIa, chrysophanol], in [1], the “solubility in aqueous solutions” value is listed as “low solubility in aqueous solutions”.

For the compound `Cc1cc(O)c2c(c1)C(=O)c1cc(O)cc(O)c1C2=O` [IIb, emodin], in series [1], the “solubility in aqueous solutions” value was “low solubility in aqueous solutions”.

Regarding `COc1cccc2c1C(=O)c1c(OC)cc(CNCCCl)cc1C2=O` [IXa-7, 3-[N-(2-chloroethyl)amino]methyl-1,8-dimethoxy-9,10-anthraquinone], the IC50 in series [2] (setting [10]) was 26 µM; in series [3] (Homo sapiens), 86 µM; in [4] (Homo sapiens, 0.5 h), 19 µM. In addition, the B/A in series [4] came out at 0.22. Moreover, in “Stability of compound”, the stability entry was “unstable”.

Take `COc1cc([C@@H]2c3cc4c(cc3[C@@H](O[C@@H]3O[C@@H]5CO[C@@H](C)O[C@H]5[C@H](O)[C@H]3O)[C@H]3COC(=O)[C@H]23)OCO4)cc(OC)c1O` [VP-16, etoposide, reference compound]: the “reversal of protein-linked DNA by heat” value with Topo II [5] was “reduced during 0.5 min exposure to 65 °C”. In addition, in the series with DNA topoisomerase II, the “stabilization of cleavable complex between DNA topoisomerase II and DNA” value (from here on “stabilization”) was “stabilize the cleavable complex between DNA topoisomerase II and DNA”.

Consider `O=C1c2cccc(O)c2C(=O)c2c(O)cc(CN(CCCl)CCCl)cc21` [XIa-3, 3-(bis[2-chloroethyl]amino)methyl-1,8-dihydroxy-9,10-anthraquinone], for which the “ID50” value in [2] (Table I) turned out to be 0.058 µg/mL (≈ 0.147 µM). Besides, the IC50 in series [2] (Table I, read-out: ID50 (the source's name)) came to 0.13 µM; in [3] (0.2% DMSO) it was 0.18 µM; in [4], 69 µM; in the series on leukemic cells, 0.14 µM. Further, the B/A in [4] came to 383. In addition, in the series with leukemia L1210/Cisplatin (100 mg/kg/day×5 (ip)), the “cure of mice inoculated with Cisplatin resistant leukemia L1210/Cisplatin” value was “cured”. The “potency against mouse leukemia L1210 made resistant to Cisplatin” value in the series with leukemia L1210/Cisplatin (mouse, in vivo) is reported as “extremely potent”. For the same compound, in the series on Topo II [6], the “concentration that inhibits kDNA decatenation” value was 48 µM. In the series with Topo II [7], the “protein-linked DNA breaks, cleavage site pattern” value is “induce protein-linked DNA breaks with a cleavage site pattern similar to m-AMSA”. For the same compound, the “formation of Topo II cleavable complex” value with Topo II [8] was “stimulate the formation of Topo II cleavable complex”. Besides, the “reversal of protein-linked DNA by heat” value in the series on Topo II [5] is “cannot be reversed up to 15 min”.

Regarding `O=C1c2cccc(O)c2C(=O)c2c(O)cc(CNCCO)cc21` [XIa-6, 3-(2-hydroxyethylamino)methyl-1,8-dihydroxy-9,10-anthraquinone], the IC50 in series [2] (setting [11]) amounted to 0.16 µM; in series [2] (setting [12]), 0.066 µg/mL; in [3] (Homo sapiens, 0.2% DMSO), 0.86 µM; in series [4] (Homo sapiens, 0.5 h) it was 15 µM; in the series on leukemic cells it was 0.86 µM. Besides, the B/A in series [4] stood at 17.4. In the series on Topo II [6], the “concentration that inhibits kDNA decatenation” value came to 38 µM. For the same compound, the “protein-linked DNA breaks, cleavage site pattern” value with Topo II [7] is given as “induce protein-linked DNA breaks with a cleavage site pattern similar to m-AMSA”. Moreover, the “formation of Topo II cleavable complex” value in the series with Topo II [8] is recorded as “stimulate the formation of Topo II cleavable complex”. Moreover, the “reversal of protein-linked DNA by heat” value in the series on Topo II [5] is “reduced during 0.5 min exposure to 65 °C”.

As for `O=C1c2cccc(O)c2C(=O)c2c(O)cc(CNCCCl)cc21` [XIa-7, 3-[N-(2-chloroethyl)amino]methyl-1,8-dihydroxy-9,10-anthraquinone], the IC50 in series [2] (Mus musculus, L1210, read-out: ID50 (μM)) turned out to be 7.11 µM; in [2] (Mus musculus, L1210, read-out: ID50 (μg/mL)), 2.37 µg/mL; in series [3] (Homo sapiens) it was 7.5 µM; in series [4] (Homo sapiens, 0.5 h), 39 µM. In addition, the B/A in series [4] was determined as 5.2. Besides, the “reversal of DNA induced changes in absorption spectra by Me2SO” value in series [9] was “could be reversed by addition of Me2 SO”. In addition, the stability entry in the series “Stability of compound” is recorded as “unstable”.

`COc1cc(O)c2c(c1)C(=O)c1cc(CNCCO)cc(O)c1C2=O` [XIb-6, 3-[N-(2-hydroxyethyl)amino]methyl-1,8-dihydroxy-6-methoxy-9,10-anthraquinone]: the IC50 is 0.19 µM in series [2] (setting [11]); 0.072 µg/mL in series [2] (setting [12]); 0.5 µM in series [2] (Mus musculus, Table IV, L1210, 72 h exposure, read-out: ID50, M (L1210 cell growth)); 1.6 µM in [3] (Homo sapiens, 0.2% DMSO); 12 µM in series [4] (Homo sapiens, 0.5 h). The B/A in series [4] was found to be 7.5. Also, the “interaction with DNA” value in [9] (absorption spectra, native and thermally denatured DNA) was “interact with both native and thermally denatured DNA but more strongly with native DNA”.

For `COc1cc(O)c2c(c1)C(=O)c1cc(CNCCCl)cc(O)c1C2=O` [XIb-7, 3-[N-(2-chloroethyl)amino]methyl-1,8-dihydroxy-6-methoxy-9,10-anthraquinone], the IC50 in series [2] (setting [10]) worked out at 18 µM; in series [3] (Homo sapiens) it was 9.2 µM; in series [4] (Homo sapiens, 0.5 h), 220 µM. Besides, the B/A in series [4] was 23.9. Besides, the “reversal of DNA induced changes in absorption spectra by Me2SO” value in series [9] is “could be reversed by addition of Me2 SO”. Besides, in series [9] (Na concentration increased from 0.01 to 0.1 M), the “interaction with DNA on increase of salt concentration” value is on record as “lost the ability to interact with DNA”.

Turning to `COc1cccc2c1C(=O)c1c(O)c3c(c(O)c1C2=O)C[C@@](O)(C(=O)CO)C[C@@H]3O[C@H]1C[C@H](N)[C@H](O)[C@H](C)O1` [adriamycin], the “stabilization” value in the series with DNA topoisomerase II was “stabilize the cleavable complex between DNA topoisomerase II and DNA”.

With `Cc1c2ccncc2c(C)c2c1[nH]c1ccccc12` [ellipticine], in the series on DNA topoisomerase II, the “stabilization” value was “stabilize the cleavable complex between DNA topoisomerase II and DNA”.

Turning to `COc1cc(NS(C)(=O)=O)ccc1Nc1c2ccccc2nc2ccccc12` [m-AMSA, 4'-(9-acridinylamino) methanesulfon-m-aniside], the “effect on DNA topoisomerase II reactions” value in the series with DNA topoisomerase II is “inhibits the topoisomerization and catenation reactions of DNA topoisomerase II”.
